The numbers were not newly measured in patent US20230139565A1 (GLANIS PHARMACEUTICALS, INC., priority 2020, published 2023), which cites them from elsewhere.

Experiment in data set [1]: not given
The source holds these as a separate data set.

The subject of data set [2] is albumin and aphal-acid glycoprotein.

Counter-ions that a name gives are not always drawn.

For the molecule `CCN(CCO)CCCC(C)Nc1ccnc2cc(Cl)ccc12` (stereo not shown) [Hydroxychloroquine sulfate], where the note is “alcohol, chloroform, ether”, the “solubility in alcohol, chloroform, and in ether” value is “practically insoluble”. For the same molecule, the solubility in water result (water) is “freely soluble”.

The term half-life denotes the time needed for the level to fall by half in the phase considered. `CCN(CCO)CCCC(C)Nc1ccnc2cc(Cl)ccc12` (stereo not shown) [HCQ, Hydroxychloroquine]: the “terminal half-life based on blood concentration” value in data set [1] (blood) was 30 to 60 days. The “time of peak concentration” value in data set [1] (following 200 mg oral dose) is given as “around 3 hours”. Further, the “peak concentration in blood” value in data set [1] (following 200 mg oral dose, blood) is recorded as “around 129.6 ng/ml”. Besides, the “plasma concentration (peak)” value in data set [1] (following 200 mg oral dose, plasma) is listed as “around 50.3 ng/ml”. In addition, in data set [1] (in vivo), the half-life was approximately 2.08 days and the volume of distribution result was “high volume of distribution”. Besides, in data set [1] (oral tablet), the oral bioavailability result is reported as “about 75%”. Besides, in data set [2], the protein binding is given as approximately 40%.
